These results are taken from patent US20050053575A1, “Antigenic product displaying multiple copies of an epitope of a deposit-forming polypeptide involved in plaque-forming diseases and methods of using same” (Ramot At Tel Aviv University Ltd, priority 2001, published 2005).

In assay [1] the test system is serum antibody raised against f88-EFRH. Put plainly: Competitive inhibition by peptides within βAP of serum antibody raised against f88-EFRH (ELISA). It counts as binding. The note with it: Nd = IC50 which cannot be detected by ELISA, read-out: Competitive inhibition of MICE SERUM antibody (IC50). The text has this:
The antibodies resulting from EFRH (SEQ ID NO:5) phage immunization are similar regarding their immunological properties to antibodies raised by direct injection with whole β-amyloid (Table 1). […] The high immunogenicity of filamentous phages enables the raising of antibodies against self-antigens.

Assay [2] deals with amyloid anti-aggregating antibody. As to conditions: Frenkel et al. 1998; ELISA; Nd = IC50 which cannot be detected by ELISA; read-out: Competitive inhibition of anti-aggregating antibody (IC50); cited from earlier work.
Assay [3] relates to β-amyloid peptide 1-16 (EFRH-epitope). Nature of the assay: Immunization of Balb/C mice; serum Ig titers by ELISA against the EFRH-epitope (β-amyloid peptide 1-16). The assay is classed as in vivo. As to conditions: i.p., filamentous phage as adjuvant, five injections; FIG. 10. As for the experimental part:
Four mice (named A, B, C, D) were immunized at two week intervals with 100 μg of MAP-[…] (SEQ ID NO:1)+adjuvant (either Complete Freund's or Incomplete Freund's adjuvant) by intraperitoneal injection, and two mice were immunized with H2O+adjuvant as a negative control. All mice were 8 week old female mice.
In experiments of antibody binding to β-amyloid peptide 1-16, 100 ng/well biotinylated β-amyloid peptides 1-16 were bound to streptavidin-coated microtiter plates for ½ h at room temperature. ELISA plates were previously coated with streptavidin for 16 h at 4° C. after washing, bound antibodies to β-peptide were detected by incubation with horseradish peroxidase-conjugated antibodies, as previously described in Frenkel et al. (1999). The Ig type was measured with rabit anti-mouse IgG and anti-mouse IgM labeled with horseradish peroxidase.
Two female mice 8 weeks old (named A and B) were immunized at approximately two week intervals with 200 μg of MAP-(EFRH)2+filamentous phage as adjuvant by intraperitoneal injection.
Two female mice 8 weeks old (named G and H) were immunized at approximately two week intervals with the streptavidin and biotinylated MAP-[…] (SEQ ID NO:1) complex (100 μg of MAP-[…] (SEQ ID NO:1) per mouse) by intraperitoneal injection without adjuvant.

No end group written: not given here.

Regarding DAEFRH [peptide, residues 1-6 of AβP], the IC50 in assay [1] is 3 µM; in assay [2], 0.8 µM. Regarding DAEFRHD [peptide, residues 1-7 of AβP], the IC50 in assay [1] is 5 µM; in assay [2], 0.9 µM. On to DAEFRHDSG, for which the IC50 in assay [1] is 5 µM; in assay [2], 1 µM. With “FRH: peptide, residues 4-6 of AβP (Amyloid-beta protein 40; UniProt P05067 675-677, looked up, fragment)”, the IC50 in assay [1] is around 1000 µM; in assay [2], 3000 µM.

Consider “MAP-(EFRH)2: octavalent MAP carrying TyrGluPheArgHisTyrGluPheArgHis (SEQ ID NO:4), two EFRH epitopes per peptide (YEFRHYEFRH; also: octavalent lysine-core MAP)”, for which the “Immune response (serum IgG titers)” value in assay [3] is on record as “strong immune response”. As to “βAP(1-40): full length β-amyloid peptide (1-40)”, the IC50 in assay [1] is 3 µM; in assay [2], 0.8 µM.
